Measurements reported in patent US20060241067A1, “Methods For inhibiting angiogenesis, cell migration, cell adhesion, and cell survival” (priority 2002, published 2006).
Like-named read-outs stand apart in the source and are kept apart here. Where a SMILES comes first, the peptide text is derived from it. Where no end group is shown, it is not given here. The star is where a group is joined. Cbz = O=C(OCc1ccccc1)*; CH2F = FC*

Experiments:
[1] = test system: chick chorioallantoic membrane (CAM); test: Chick chorioallantoic membrane (CAM) angiogenesis assay; assay type: in vivo, chicken; settings: for effect on inhibition of angiogenesis by anti-αvβ3: 500 μM caspase inhibitors; for effect on inhibition of angiogenesis by anti-α5β1: 500 μM caspase inhibitors or 4 μg plasmid; for angiogenesis (blood vessel branch points, vessel density): 1 μM peptide
[2] = test system: Human umbilical vein endothelial cells (HUVEC); test: Endothelial cell migration assay (transwell) on ECM substrates; assay type: cell-based; settings: for endothelial cell migration on vitronectin: 1 μM peptide
Procedure: Human umbilical vein endothelial cells (HUVEC) were grown in Endothelial Growth Medium (containing 2% fetal bovine serum, bFGF and VEGF) (Clonetics, San Diego, Calif.). To render HUVECs quiescent for Rac and/or Rho assays, monolayers of endothelial cells were incubated for 18 hrs in Endothelial Basal Medium supplemented with 0.1% serum (Clonetics). Cell migration and adhesion assays on ECM substrates were performed as previously described in Kim et al. (S. Kim et al., Amer. J. Biol. Chem., 275:33920-33928 (2000); and S. Kim et al., Amer. J. Path., 156:1345-1362 (2000)).
Migration assays were performed essentially as described (Kim, et. al., 2000). […] HUVECS (25,000) were added to the upper chamber of inserts in migration buffer (Hepes buffered M199 medium containing 1% BSA, 2 mM MgCl2, 2 mM CaCl2 and 0.2 mM MnCl2) containing 25 μg/ml of various antibodies. In some experiments, 250 μM dibutyryl cAMP was placed in the upper and lower chambers of the transwell. Cells were allowed to migrate from the upper to the lower chamber for four hours at 37° C. The number of cells which had migrated were counted in three representative high power (200×) fields per insert. The data are presented as number of cells migrating+/−standard error of the mean. Migration assays were similarly performed on transfected cells. In this case, migrated transfected cells were identified by fluorescent microscopy and counted.

HUVECS [3] = test: Annexin V-FITC staining of HUVECs (apoptosis); assay type: cell-based, human
Procedure: Plates were also coated with […] goat anti-mouse IgG (Southern Biotechnology Associates, Inc., Birmingham, Ala.) at 37° C. for 2 h, rinsed, blocked with denatured BSA, and then incubated with […] anti-a5b1 or control IgG (anti-MHC) at 4° C. for 16 hrs. HUVECs were incubated on plates in the presence or absence of 10 mg/ml anti-α5β1, -αvβ3, -α2β1, or -MHC for 0-24 hrs. In some experiments, HUVECs were incubated with antibodies and […] caspase-3, -8 or -9 inhibitors or vehicle control (0.5% DMSO). Cells were then incubated with Annexin V-FITC for 15 min at room temperature in the dark. Washed cells were fixed in 1% paraformaldehyde, then incubated in DAPI. The percentage of Annexin positive cells in 5 microscopic fields was determined at 200× magnification by fluorescence microscopy.
(§1) HUVECs were plated for 24 h on ECM protein-coated plates in the presence of anti-αvβ3 or anti-α5β1, 1 μM HA1004 (a PKA inhibitor), and anti-αvβ3 or anti-α5β1 with 1 μM HA1004. Cells were stained with FITC-Annexin V or immunoblotted with anti-cleaved caspase 3 antibodies as described above. 5×10^6 HUVECs were electroporated in 300 μl of EGM with 30 μg of DNA (20 μg dnPKA or PKAcat plasmids, 2 μg N1-GFP and 8 μg pBluescript) at 300 V, 450 μF as previously described (Dormond et al. (2001) Nature Med. 7,1041-7). Expression of transgenes was determined by Western blotting of cell lysates with anti-V5 and anti-GFP antibodies. Transfection efficiency was quantified by determining the percent of cells that were co-transfected with GFP-expression vectors. Eighty-percent transfection efficiency was generally achieved using this electroporation method.

HUVECS [4] = test: Apoptosis assays in HUVECs (PARP and caspase immunoblots, caspase activity, DNA fragmentation); assay type: cell-based, human
Procedure: In some embodiments, HUVECs were incubated on ECM or antibody coated plates for 0-24 hrs. DNA fragmentation was detected by agarose gel electrophoresis as described in M. Herrmann et al. (See, M. Herrmann et al., Nucleic Acids Res., 22:5506-5507 (1994)). Alternatively, HUVECS on plates were lyzed with RIPA buffer (See, S. Kim et al., J. Biol. Chem., 275:33920-33928 (2000)) on ice. Lysates were electrophoresed on 8% SDS-PAGE gels and immunoblotted with anti-PARP, -caspase-3, -caspase-9, -cleaved caspase 3, or -cleaved caspase-9 antibodies. Immunoreactive bands were identified by chemiluminescence and quantified by densitometry. Caspase 3 and 8 activities were determined in cell lysates according to manufacturer's instructions (Calbiochem, La Jolla, Calif.).
as §1

[5] = test system: chick chorioallantoic membrane (CAM); test: Apoptosis markers in CAM blood vessels in vivo (Annexin V, cleaved caspases, TUNEL, DNA gels); design: species or system chicken; settings: for caspase activity in vivo (cleaved caspase immunoblot): CAMs treated with anti-α5β1 and caspase inhibitor; for effect on endothelial cell DNA fragmentation induced by α5β1 inhibition in vivo: TUNEL staining of CAM cryosections
Procedure: CAM assays were performed as described (Kim et al. (2000) Am. J. Path. 156:1345-1362). Saline or bFGF stimulated CAMs were treated for 24 h with 20 μg anti-α5β1, anti-αvβ3 or control antibodies and then injected intravenously with 50 μl Annexin V-FITC. CAMs were harvested after 2 h, then analyzed by confocal microscopy. Alternatively, CAMs treated as above were excised, minced on ice, and treated with 0.1% dispase/0.1% collagenase for 1 h at 37° C. Single cell suspensions were incubated with FITC-Annexin V and analyzed as described above. bFGF stimulated CAMs were also treated with anti-α5β1 or anti-αvβ3 in the presence or absence of 500 μM caspase-3, -8 or -9 inhibitors. bFGF stimulated CAMs were also transfected with 4 μg N1-GFP, dnPKA or PKAcat expression plasmids. Freshly excised CAMs were homogenized in ice cold RIPA buffer containing protease inhibitors and immunoblotted to detect intact and cleaved caspase 3 or 8. For all treatment groups, n=10. CAMs were fixed with 3.7% paraformaldehyde prior to excision. The average number of blood vessel branch points per treatment group+/−SEM is presented. Some excised CAMs were cryopreserved, cut into 5 μm sections, immunostained with anti-cleaved caspase 3, anti-cleaved caspase 8 and anti-VFW antibodies (to detect blood vessels). CAMs were also stained by the TUNEL method to detect fragmented DNA.

[6] = test system: DU145 prostate carcinoma tumors; test: DU145 tumor assay in nude mice; assay type: in vivo; settings: daily intravenous injections, ten days
protein kinase A = test: PKA activity assay in HUVECs; assay type: cell-based, human
Procedure: PKA activity was measured in HUVECs essentially as previously described in Kim et al (S. Kim et al., Amer. J. Biol. Chem., 275:33920-33928 (02000)). HUVECs were placed in suspension, allowed to attach to ECM protein coated plates in the absence or presence of anti-integrin antibodies or were treated with 10 μM PTHrP and/or 250 μM cAMP. PKA activity was measured at various times from 0-4 hrs (e.g., 2-30 min).
Plates were washed and blocked in 3% bovine serum albumin for 1 hour at 37° C. HUVECS were trypsinized and resuspended in adhesion buffer (Hanks balanced salt solution supplemented with 10 mM HEPES, pH 7.4, 2 mM MgCl2, 2 mM CaCl2, 0.2 mM MnCl2, 1% BSA. Cells were plated on matrix protein coated plates in culture medium or in the presence of 25 μg/ml anti-α5β1, anti-αvβ3 or anti-α2β1 antibodies for various times from 0 minutes to 4 hours. Plates were washed with phosphate buffered saline and cells were extracted with cold extraction buffer (50 mM Tris, pH 7.5, 5 mM EDTA, 25 μg/ml aprotinin and 25 μg/ml leupeptin). Protein Kinase A activity was assessed using a kit from Gibco BRL. Briefly, equal volumes of lysate and reaction mixture containing final concentrations of 50 mM Tris, pH 7.5, 10 mM MgCl2, 0.25 mg/ml BSA, 50 μM Kemptide (a protein kinase A substrate), 3000 Ci/mmol (γ^32 P) ATP and 100 μM ATP were combined for 5 minutes at 30° C. Total PKA in each sample was measured by performing the assay in the presence of 10 μM cAMP. Background PKA activity in test and total PKA samples were determined by performing the assay in the presence of a PKA inhibitor peptide, PKI (6-22) amide. Twenty μl samples of reaction mixtures were spotted onto phosphocellulose discs and washed repeatedly with 1% (v/v) phosphoric acid in water. Incorporated radioactivity was determined by scintillation counting. Activated PKA was calculated from the ratio of pmol/min test sample PKA to pmol/min total PKA. PKA activity in triplicate samples was measured and experiments were repeated at least three times.
In another embodiment, PKA assays were performed with a kit from Calbiochem (San Diego, Calif.). Cell lysates were incubated in ELISA plates coated with a PKA peptide substrate, then incubated with anti-phosphoserine antibodies. Bound antibody was detected after incubation with anti-rabbit IgG-horse radish peroxidase. Statistical analyses were performed using Student's t-test.

Compound: O=S(=O)(NCCNCC=Cc1ccc(Br)cc1)c1cccc2cnccc12 [H89, N-(2-(p-bromocinnamylamino)ethyl)-5-isoquinoline sulfonamide]
- effect on inhibition of angiogenesis by PTHrP ([1]; bFGF stimulated CAMs, 8B12, 480 nM H89 or dnPKA plasmid): blocks the suppression of angiogenesis induced by PTHrP 1-34
- effect on cAMP-, PKA catalytic subunit- or PTHrP-mediated inhibition of cell migration ([2]; HUVEC on vitronectin): blocked the anti-migratory properties of PTHrP

Compound: NC(N)=NCCNS(=O)(=O)c1cccc2cnccc12 [HA1004]
- effect on apoptosis induced by integrin antagonists (HUVECS [3]; PKA inhibition (1 μM HA1004 or dnPKA), 24 h): substantially suppressed the apoptosis
- effect on caspase 3 cleavage induced by anti-α5β1 (HUVECS [4]; cells attached to vitronectin): blocked caspase 3 cleavage

Compound: COC(=O)CC[C@H](NC(=O)[C@H](CC(=O)OC)NC(=O)OCc1ccccc1)C(=O)N[C@H](C(=O)N[C@@H](CC(=O)OC)C(=O)CF)C(C)C [caspase 3 inhibitors, z-DEVD-fmk]
- effect on inhibition of angiogenesis by anti-αvβ3 ([1]; bFGF stimulated CAMs): partially reversed
- effect on inhibition of angiogenesis by anti-α5β1 ([1]; bFGF stimulated CAMs): partially reversed
- effect on cell death induced by anti-α5β1 antibodies (HUVECS [3]; 50 μM caspase inhibitor, cells on fibronectin or vitronectin, 24 h): blocked
- caspase activity in vivo (cleaved caspase immunoblot) [5]: partially blocked caspase 3 activity in vivo
- effect on endothelial cell DNA fragmentation induced by α5β1 inhibition in vivo [5]: prevented in vivo endothelial cell DNA fragmentation

Compound: CC[C@H](C)[C@H](NC(=O)OCc1ccccc1)C(=O)N[C@@H](CCC(=O)OC)C(=O)N[C@H](C(=O)N[C@@H](CC(=O)OC)C(=O)CF)[C@@H](C)O [caspase 8 inhibitors, z-IETD-fmk] (Cbz-IE(OMe)TD(OMe)-CH2F)
- effect on inhibition of angiogenesis by anti-αvβ3 ([1]; bFGF stimulated CAMs): partially reversed
- effect on inhibition of angiogenesis by anti-α5β1 ([1]; bFGF stimulated CAMs): fully reversed
- caspase activity in vivo (cleaved caspase immunoblot) [5]: completely blocked its activity in vivo
- effect on endothelial cell DNA fragmentation induced by α5β1 inhibition in vivo [5]: prevented in vivo endothelial cell DNA fragmentation

Compound: H L Q A H S V E D L (HLQAHSVEDL) [scrambled 1-10, scrambled version of PTHrP 1-10, control peptide]
- tumor growth ([6]; final serum concentration 1 μM): but not a scrambled control peptide, suppressed tumor growth and tumor angiogenesis
- tumor angiogenesis (CD31 vessels) [6]: but not a scrambled control peptide, suppressed tumor growth and tumor angiogenesis
- endothelial cell migration on vitronectin [2]: unable to inhibit cell migration

Compound: PTHrP 1-86: PTHrP fragment containing the N-terminus, amino acids 1-86
- angiogenesis (blood vessel branch points, vessel density) ([1]; bFGF stimulated CAMs): potently inhibited angiogenesis
- endothelial cell migration on vitronectin [2]: inhibited migration

Compound: PTHrP 15-34: PTHrP fragment, amino acids 15-34 (IQDLRRRFFLHHLIAEIHTA)
- endothelial cell migration on vitronectin [2]: unable to inhibit cell migration

Compound: PTHrP 107-138: PTHrP fragment lacking the N-terminus (TRSAWLDSGVTGSGLEGDHLSDTSTTSLELDS; UniProt P12272 143-174, looked up, fragment)
- endothelial cell migration on vitronectin [2]: not able to inhibit cell migration

Compound: calcitonin: a calcium regulating peptide hormone (CGNLSTCMLGTYTQDFNKFHTFPQTAIGVGAP; ends and bridges not checked; cysteine pairing not given here; UniProt P01258 85-116, looked up)
- angiogenesis (blood vessel branch points, vessel density) ([1]; bFGF stimulated CAMs): Only PTHrP inhibited angiogenesis
- pre-existing vessels (number, size, composition) ([1]; saline-stimulated CAMs): no effect on the number, size or composition of pre-existing vessels

Compound: cholera toxin
- PKA activation (protein kinase A): activates PKA

Compound: fibronectin: ECM protein used as culture substrate
- annexin V binding of HUVECs by culture substrate (HUVECS [3]; coated plates, 0-8 h): bind little annexin V
- DNA fragmentation by culture substrate (HUVECS [4]; HUVECs on coated plates): protects HUVECs from DNA fragmentation
- PARP cleavage by culture substrate (HUVECS [4]; HUVECs on coated plates): showed little PARP cleavage

Compound: pertussis toxin
- PKA activation (protein kinase A; inventors' data, no details given): inhibits PKA activation
